Test results taken from PubChem BioAssay (NCI).
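Briefly, cells in 96-well plates were exposed to five compound concentrations for 48 h, and endpoints were estimated by linear interpolation. TGI is the concentration that stops growth completely.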

Experiments:
Test in all cases: growth of human tumour cells (NCI), 48 h
DMS 273 small cell lung = system: DMS 273 small cell lung
SK-MEL-5 melanoma = system: SK-MEL-5 melanoma
EKVX NSCLC = system: EKVX NSCLC
COLO 205 colon = system: COLO 205 colon
OVCAR-8 ovarian = system: OVCAR-8 ovarian
LXFL 529 NSCLC = system: LXFL 529 NSCLC
HCT-116 colon = system: HCT-116 colon
DMS 114 small cell lung = system: DMS 114 small cell lung
CCRF-CEM leukemia = system: CCRF-CEM leukemia
UACC-62 melanoma = system: UACC-62 melanoma
HCC-2998 colon = system: HCC-2998 colon
OVCAR-3 ovarian = system: OVCAR-3 ovarian
SF-295 CNS = system: SF-295 CNS
RXF 393 renal = system: RXF 393 renal
SK-MEL-28 melanoma = system: SK-MEL-28 melanoma
HL-60(TB) leukemia = system: HL-60(TB) leukemia
SK-OV-3 ovarian = system: SK-OV-3 ovarian
MALME-3M melanoma = system: MALME-3M melanoma
KM12 colon = system: KM12 colon
LOX IMVI melanoma = system: LOX IMVI melanoma
SK-MEL-2 melanoma = system: SK-MEL-2 melanoma
A549 NSCLC = system: A549 NSCLC
XF 498 CNS = system: XF 498 CNS
TK-10 renal = system: TK-10 renal
SN12C renal = system: SN12C renal
NCI-H460 lung = system: NCI-H460 lung
IGROV1 ovarian = system: IGROV1 ovarian
K-562 leukemia = system: K-562 leukemia
RPMI-8226 leukemia = system: RPMI-8226 leukemia
OVCAR-4 ovarian = system: OVCAR-4 ovarian
UO-31 renal = system: UO-31 renal
SW-620 colon = system: SW-620 colon
NCI-H522 lung = system: NCI-H522 lung
M14 melanoma = system: M14 melanoma
MOLT-4 leukemia = system: MOLT-4 leukemia
HOP-62 NSCLC = system: HOP-62 NSCLC
SNB-19 CNS = system: SNB-19 CNS
M19-MEL melanoma = system: M19-MEL melanoma
CAKI-1 renal = system: CAKI-1 renal
U251 CNS = system: U251 CNS
SR leukemia = system: SR leukemia
HT29 colon = system: HT29 colon
HCT-15 colon = system: HCT-15 colon
SNB-75 CNS = system: SNB-75 CNS
NCI-H23 lung = system: NCI-H23 lung
ACHN renal = system: ACHN renal
UACC-257 melanoma = system: UACC-257 melanoma
786-0 renal = system: 786-0 renal
DLD-1 colon = system: DLD-1 colon
SF-268 CNS = system: SF-268 CNS
KM20L2 colon = system: KM20L2 colon
HOP-18 NSCLC = system: HOP-18 NSCLC
SF-539 CNS = system: SF-539 CNS
A498 renal = system: A498 renal
OVCAR-5 ovarian = system: OVCAR-5 ovarian
SNB-78 CNS = system: SNB-78 CNS

With `COC(=O)/C(=C/CC(N=C(c1ccccc1)c1ccccc1)C(=O)OC)N=C(c1ccccc1)c1ccccc1` (centres undefined) the TGI (DMS 273 small cell lung) was > 100 µM, the TGI (SK-MEL-5 melanoma) was > 100 µM and the TGI (EKVX NSCLC) was > 100 µM. The TGI (COLO 205 colon) was > 100 µM, the TGI (OVCAR-8 ovarian) was > 100 µM and the TGI (LXFL 529 NSCLC) was > 100 µM. For the same molecule, the TGI (HCT-116 colon) was > 100 µM, the TGI (DMS 114 small cell lung) was 82.1 µM and the TGI (CCRF-CEM leukemia) was > 100 µM. The TGI (UACC-62 melanoma) was > 100 µM, the TGI (HCC-2998 colon) was > 100 µM and the TGI (OVCAR-3 ovarian) was > 100 µM. The TGI (SF-295 CNS) was > 100 µM, the TGI (RXF 393 renal) was > 100 µM and the TGI (SK-MEL-28 melanoma) was > 100 µM. For the same molecule, the TGI (HL-60(TB) leukemia) was > 100 µM, the TGI (SK-OV-3 ovarian) was > 100 µM and the TGI (MALME-3M melanoma) was > 100 µM. For the same molecule, the TGI (KM12 colon) was > 100 µM, the TGI (LOX IMVI melanoma) was > 100 µM and the TGI (SK-MEL-2 melanoma) was > 100 µM. The TGI (A549 NSCLC) was > 100 µM, the TGI (XF 498 CNS) was > 100 µM and the TGI (TK-10 renal) was > 100 µM. For the same molecule, the TGI (SN12C renal) was > 100 µM, the TGI (NCI-H460 lung) was > 100 µM and the TGI (IGROV1 ovarian) was > 100 µM. The TGI (K-562 leukemia) was > 100 µM, the TGI (RPMI-8226 leukemia) was > 100 µM and the TGI (OVCAR-4 ovarian) was > 100 µM. The TGI (UO-31 renal) was > 100 µM, the TGI (SW-620 colon) was > 100 µM and the TGI (NCI-H522 lung) was > 100 µM. For the same molecule, the TGI (M14 melanoma) was > 100 µM, the TGI (MOLT-4 leukemia) was > 100 µM and the TGI (HOP-62 NSCLC) was > 100 µM. The TGI (SNB-19 CNS) was > 100 µM, the TGI (M19-MEL melanoma) was > 100 µM and the TGI (CAKI-1 renal) was > 100 µM. For the same molecule, the TGI (U251 CNS) was > 100 µM, the TGI (SR leukemia) was > 100 µM and the TGI (HT29 colon) was > 100 µM. The TGI (HCT-15 colon) was > 100 µM, the TGI (SNB-75 CNS) was 83.9 µM and the TGI (NCI-H23 lung) was > 100 µM. The TGI (ACHN renal) was > 100 µM, the TGI (UACC-257 melanoma) was > 100 µM and the TGI (786-0 renal) was > 100 µM. The TGI (DLD-1 colon) was > 100 µM and the TGI (SF-268 CNS) was > 100 µM.

In the case of `COc1ccc(OC)c2cc(C3(C)SCCCS3)ccc12`, the TGI (DMS 273 small cell lung) is reported as > 100 µM, the TGI (SK-MEL-5 melanoma) is reported as > 100 µM and the TGI (EKVX NSCLC) is reported as > 100 µM. For the same molecule, the TGI (KM20L2 colon) was > 100 µM, the TGI (COLO 205 colon) was > 100 µM and the TGI (OVCAR-8 ovarian) was > 100 µM. The TGI (LXFL 529 NSCLC) was > 100 µM, the TGI (HCT-116 colon) was > 100 µM and the TGI (DMS 114 small cell lung) was > 100 µM. For the same molecule, the TGI (CCRF-CEM leukemia) was > 100 µM, the TGI (UACC-62 melanoma) was > 100 µM and the TGI (HCC-2998 colon) was > 100 µM. For the same molecule, the TGI (OVCAR-3 ovarian) was > 100 µM, the TGI (SF-295 CNS) was > 100 µM and the TGI (HOP-18 NSCLC) was > 100 µM. For the same molecule, the TGI (RXF 393 renal) was 77 µM, the TGI (SK-MEL-28 melanoma) was > 100 µM and the TGI (HL-60(TB) leukemia) was > 100 µM. The TGI (SK-OV-3 ovarian) was > 100 µM, the TGI (MALME-3M melanoma) was > 100 µM and the TGI (KM12 colon) was > 100 µM. For the same molecule, the TGI (SF-539 CNS) was > 100 µM, the TGI (LOX IMVI melanoma) was > 100 µM and the TGI (SK-MEL-2 melanoma) was > 100 µM. The TGI (A549 NSCLC) was > 100 µM, the TGI (XF 498 CNS) was > 100 µM and the TGI (TK-10 renal) was > 100 µM. For the same molecule, the TGI (SN12C renal) was > 100 µM, the TGI (A498 renal) was > 100 µM and the TGI (OVCAR-5 ovarian) was > 100 µM. For the same molecule, the TGI (NCI-H460 lung) was > 100 µM, the TGI (IGROV1 ovarian) was > 100 µM and the TGI (K-562 leukemia) was > 100 µM. For the same molecule, the TGI (RPMI-8226 leukemia) was > 100 µM, the TGI (OVCAR-4 ovarian) was > 100 µM and the TGI (UO-31 renal) was > 100 µM. The TGI (SW-620 colon) was > 100 µM, the TGI (M14 melanoma) was > 100 µM and the TGI (MOLT-4 leukemia) was > 100 µM. The TGI (HOP-62 NSCLC) was > 100 µM, the TGI (SNB-19 CNS) was > 100 µM and the TGI (M19-MEL melanoma) was > 100 µM. The TGI (CAKI-1 renal) was > 100 µM, the TGI (U251 CNS) was > 100 µM and the TGI (SNB-78 CNS) was > 100 µM. The TGI (HT29 colon) was > 100 µM, the TGI (HCT-15 colon) was > 100 µM and the TGI (SNB-75 CNS) was > 100 µM. For the same molecule, the TGI (NCI-H23 lung) was > 100 µM, the TGI (ACHN renal) was > 100 µM and the TGI (UACC-257 melanoma) was > 100 µM. For the same molecule, the TGI (786-0 renal) was > 100 µM, the TGI (DLD-1 colon) was > 100 µM and the TGI (SF-268 CNS) was > 100 µM.
